Source: PubChem BioAssay (NCI)
Where “and” joins values, the source holds several entries; their conditions need not be identical. Equal values may be shown once.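 Compound exposure: 48 hours, 5 concentrations, 96-well plates. At the GI50, growth is halved. At the TGI there is no net growth.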

Columns and labels:
Test in all cases: growth of human tumour cells (NCI), 48 h
HOP-92 NSCLC = test system: HOP-92 NSCLC
COLO 205 colon = test system: COLO 205 colon
MCF7 breast = test system: MCF7 breast
RPMI-8226 leukemia = test system: RPMI-8226 leukemia
CCRF-CEM leukemia = test system: CCRF-CEM leukemia
OVCAR-4 ovarian = test system: OVCAR-4 ovarian
SNB-19 CNS = test system: SNB-19 CNS
SK-MEL-5 melanoma = test system: SK-MEL-5 melanoma
HCC-2998 colon = test system: HCC-2998 colon
MALME-3M melanoma = test system: MALME-3M melanoma

SMILES	GI50 (HOP-92 NSCLC)	TGI (HOP-92 NSCLC) [µM]	GI50 (COLO 205 colon)	TGI (COLO 205 colon)	GI50 (MCF7 breast)	TGI (MCF7 breast) [µM]	GI50 (RPMI-8226 leukemia)	TGI (RPMI-8226 leukemia) [µM]	GI50 (CCRF-CEM leukemia)	TGI (CCRF-CEM leukemia) [µM]	GI50 (OVCAR-4 ovarian)	TGI (OVCAR-4 ovarian) [µM]	GI50 (SNB-19 CNS)	TGI (SNB-19 CNS) [µM]	GI50 (SK-MEL-5 melanoma)	TGI (SK-MEL-5 melanoma)	GI50 (HCC-2998 colon)	TGI (HCC-2998 colon) [µM]	TGI (MALME-3M melanoma) [µM]	GI50 (MALME-3M melanoma) [µM]
O=C(Nc1ccc(F)cc1)c1cc(S(=O)(=O)Nc2nc3ccccc3o2)c(SCc2ccccc2)cc1Cl	18.5 µM	42.4	46.2 µM	> 100 µM	24.8 µM	63.7	17.8 µM	56.8	12.9 µM	31.2	26.9 µM	60.9	47 µM	> 100	17.9 µM	31.9 µM	18.4 µM	32.6		
[N-]=[N+]=Nc1cc(=O)[nH]nc1-c1ccccc1		> 100		> 100 µM		> 100		> 100		> 100		> 100						> 100	> 100	
N#CC1=C(N)Oc2cc(O)ccc2C1c1cccc2ccccc12 (stereo not drawn)	3.78 µM	23.7	16.5 µM	38.2 µM	8.69 µM	24.5	10.9 µM	41.7	7 µM	36.9	13.1 µM	31.5	16.3 µM	37.3	4.83 µM	19.4 µM	3 µM	13.9	> 100	25.8
COc1ccc(-n2c(C)cc(-c3ccccc3)c2C)cc1			2.42 µM	5.95 µM	3.58 µM	> 100	1.49 µM	5.02	2.16 µM	9.16	2.46 µM	> 100	8.41 µM	> 100	1.77 µM	4.86 µM	3.04 µM	11.4	4.53	1.78
CCOC(=O)/C=C(/C)Sc1cc(O)c2ccccc2c1O	3.21 µM	11.9	7.22 µM	20.7 µM	1.54 µM	3.59	2.29 µM	9.09	2.73 µM	6.83	3.36 µM	13.2	4.05 µM	17	1.59 µM	2.99 µM	16.2 µM	31.1	3.71	1.93
COc1ccc(-c2coc3c4c(ccc3c2=O)OCO4)cc1OC		> 100		> 100 µM		> 100		> 100		> 100		> 100		82		> 100 µM		> 100		
COc1cc(C=O)c(-c2cc(OC)c(OC)cc2C=O)cc1OC		> 100		> 100 µM				> 100		> 100		> 100		> 100		> 100 µM		> 100	> 100	
N#CC(C(=O)C(=O)Nc1ccc(Cl)cc1)c1ccccc1 (stereo not drawn)		> 100		> 100 µM				> 100		> 100		> 100		> 100		> 100 µM		> 100	> 100	
S=c1[nH]c(=S)c2nnn(-c3ccccc3)c2[nH]1		> 100		> 100 µM				> 100		> 100				> 100		> 100 µM		> 100	> 100	
COc1ccc(O)c(C(=O)c2ccc(C(=O)N[C@H]3CCCNC[C@@H]3NC(=O)c3ccncc3)cc2)c1F			> 25 µM	> 25 µM	0.823 µM	> 25	10.3 µM	> 25	0.721 µM	6.42	> 12.3 µM	> 25	10.4 µM	> 25	5.5 µM	> 17.8 µM	9.74 µM	> 25	> 25	1.47
COc1cc2c(OC)cc1CSCc1sc(C)c(c1Br)CSC2		> 100		> 100 µM				> 100		> 100		> 100		> 100		> 100 µM		> 100	> 100	
Cc1cc(NS(=O)(=O)c2ccc(Nc3c4ccccc4nc4c(C(=O)N5CCN(CCO)CC5)ccc(Cl)c34)cc2)no1		> 100		> 100 µM				> 100		74		> 100		> 100		> 100 µM		> 100	> 100	
CCOC(=O)c1c(NC(=O)c2cccc(C(F)(F)F)c2)sc2c(CN(C)C)c(O)ccc12	2.76 µM	15.2	2.1 µM	4.66 µM	2.81 µM	12.1			3.41 µM	11.7	9.85 µM	21.5	10.6 µM	22.8	2.36 µM	5.72 µM	1.77 µM	3.77	3.22	1.71
CC1(C)CC(=O)C(C=NC(=O)c2ccncc2)=C(O)C1		> 100		> 100 µM		> 100				> 100		> 100		> 100		> 100 µM		> 100		
CCOc1ccncc1[N+](=O)[O-]						> 100		> 100		> 100				> 100		> 100 µM			> 100	
COC(=O)/C=C/c1c(CC=C(C)C)ncn1C		> 100		> 100 µM				> 100		> 100		> 100		> 100		> 100 µM		> 100	> 100	
Cc1nn(C(=O)Cc2ccccc2)c2c1C(c1ccc(Cl)cc1)SC(N)=N2 (stereo not drawn)				> 100 µM		> 100		> 100		> 100						> 100 µM		> 100	> 100	
NC(=O)OCCn1cc(-c2nc(-c3c[nH]c4ncccc34)cs2)c2ccccc21	0.668 µM	3.71	2.06 µM	9.57 µM	0.989 µM	5.31	2.04 µM	8.03	2.65 µM	16.9	1.78 µM	11.9	2.57 µM	43.8	1.41 µM	2.85 µM	1.99 µM	6.54		

SMILES	GI50 (HOP-92 NSCLC)	TGI (HOP-92 NSCLC) [µM]	GI50 (COLO 205 colon)	TGI (COLO 205 colon)	GI50 (MCF7 breast)	TGI (MCF7 breast) [µM]	GI50 (RPMI-8226 leukemia)	TGI (RPMI-8226 leukemia) [µM]	GI50 (CCRF-CEM leukemia)	TGI (CCRF-CEM leukemia) [µM]	GI50 (OVCAR-4 ovarian)	TGI (OVCAR-4 ovarian) [µM]	GI50 (SNB-19 CNS)	TGI (SNB-19 CNS) [µM]	GI50 (SK-MEL-5 melanoma)	TGI (SK-MEL-5 melanoma)	GI50 (HCC-2998 colon)	TGI (HCC-2998 colon) [µM]	TGI (MALME-3M melanoma) [µM]	GI50 (MALME-3M melanoma) [µM]
CN1C(=O)/C(=C/c2c(Cl)n(C)c3ccccc23)c2ccccc21	1.8 µM	3.34	4.59 µM and 0.485 µM	1.63 µM	3.02 µM and 2.15 µM	> 100	1.53 µM	3.94		> 100	8.99 µM and 1.82 µM	3.45	6.84 µM		2.1 µM and 1.96 µM	6.51 µM and 3.46 µM				7.07
COC(=O)[C@@H](C)C[C@H](Cc1ccccc1)NC(=O)c1csc([C@@H](C[C@H](C(C)C)N(C)C(=O)[C@@H](NC(=O)[C@H]2CCCCN2C)C2CCCCC2)OC(C)=O)n1	0.000977 µM and 0.0025 µM	0.0112	0.000301 µM and < 0.0025 µM	0.0026 µM and < 0.0025 µM		> 25	0.000324 µM and 0.0025 µM	3.64	0.00195 µM and 0.0025 µM	5.8		> 25	0.000718 µM and 0.0025 µM	> 25		0.0131 µM and 0.0115 µM	0.000455 µM and 0.0025 µM	> 25		
O=C1NC(=O)C(c2cccc([N+](=O)[O-])c2)=C1Nc1cc(Cl)c(O)c(Cl)c1			> 25 µM	> 25 µM	> 25 µM	> 25	> 25 µM	> 25			> 25 µM	> 25	> 25 µM	> 25	24.4 µM	> 25 µM	> 25 µM	> 25	> 25	> 25
O=C(O)c1ccc(OCc2ccccc2)c(Cl)c1		> 100		> 100 µM		> 100		> 100		> 100		> 100		> 100		> 100 µM			> 100	
COc1ccc(-c2ccc(-c3ccc(C(=N)N)s3)s2)cc1	1.16 µM	2.71	0.309 µM	0.916 µM			0.221 µM	0.469	0.208 µM	0.485	0.187 µM	0.399	0.31 µM	1.41	1.21 µM	2.87 µM	0.273 µM	0.699	1.39	0.564
CNS(=O)(=O)NNS(=O)(=O)c1ccc(Br)cc1		> 100		> 100 µM				> 100		> 100		> 100		> 100		> 100 µM		> 100	> 100	
Cc1nc2sc3c(c2c(=O)[nH]1)CCCC3		> 100		> 100 µM		> 100		> 100				> 100		> 100		> 100 µM			> 100	
CC(C)C(=O)NS(=O)(=O)c1ccccc1		> 100		> 100 µM				> 100		> 100		> 100		> 100				> 100	> 100	
Cc1nc(-[n+]2nc(-c3ccncc3)nn2-c2ccccc2)sc1C				> 100 µM		> 100		> 100		> 100				> 100		> 100 µM		> 100	> 100	
c1ccc2nc3c(nc2c1)sc1ccccc13				> 100 µM		> 100		> 100		> 100		32.9		42.2		> 100 µM		> 100	> 100	
C1=C\COCc2cc(ccc2OCCN2CCCC2)Nc2nccc(n2)-c2cccc(c2)COC/1	1.34 µM	4.86	1.35 µM	4.29 µM	0.772 µM	3.37	3.12 µM	6.35	2.56 µM	7	3.79 µM	6.56	2.68 µM	7.07			2.3 µM	5.37	5.32	2.13
NCCSc1nc(-c2ccccc2)c(-c2ccccc2)o1		> 100		> 100 µM		> 100		> 100				> 100		> 100		> 100 µM			> 100	
Cc1c(/C=N/NC(=O)c2ccc(Cl)cc2)c(=O)n(-c2ccccc2)n1C		> 100		> 100 µM				> 100		> 100		> 100		> 100				> 100	> 100	
O=C1c2ccccc2-c2c1c1ccccc1c(=O)n2CCCCl	16.8 µM	43.3			2.18 µM	62.4	61.7 µM	> 100	3.86 µM	> 100	> 100 µM	> 100	34.2 µM	> 100	5.92 µM	> 100 µM	10.4 µM	96.6		
C#COc1cccc(Nc2c(C#N)cnc3ncc(NC(=O)CCl)cc23)c1	> 62.5 µM	> 62.5	40.1 µM	> 62.5 µM	12.8 µM	> 62.5	> 62.5 µM	> 62.5	3.72 µM	> 62.5			32.1 µM	> 62.5	> 62.5 µM	> 62.5 µM	> 62.5 µM	> 62.5	> 62.5	55.4
CCn1c(=O)c2c(=O)c3c4c(oc3oc2c2ccccc21)C(=O)c1ccccc1C4=O			> 100 µM	> 100 µM	> 100 µM	> 100	2.91 µM	> 100	1.18 µM	> 100	0.376 µM	1.5	> 57.7 µM	> 100	> 100 µM	> 100 µM	> 100 µM	> 100	> 100	> 100
CCN1C(=O)N(CC)C2C1NN=c1s/c(=C3\C(=O)N(CC(C)(C)C)c4ccccc43)c(=O)n12 (stereo not drawn)	2.56 µM	16	3.31 µM	13.5 µM	1.62 µM	18.7			3.62 µM	> 100	7.77 µM	66.6	4.05 µM	16	2.11 µM	5.21 µM	3.4 µM	13.8	25.5	10
N#Cc1c(N/N=C/c2ccc(Cl)cc2Cl)nc(N)nc1N1CCCC1	17.6 µM	43.7	88.1 µM	> 100 µM	> 100 µM	> 100	30.9 µM	> 100	23.5 µM	58.3	14.8 µM	> 100	49.9 µM	> 100	21.5 µM	> 100 µM	> 100 µM	> 100		
